In ChEMBL document CHEMBL4000207 (Bioorg Med Chem Lett, 2017):
In brackets after ≈: the same amount, converted by molar mass.

How the values were obtained:
[1] = Lipophilicity, log D of the compound; type: physicochemical; conditions: octanol/water
in vitro [2] = conditions: human, liver microsomes
[3] = Intrinsic clearance in rat hepatocytes assessed per million cells; type: ADME, cell-based, Hepatocyte; conditions: read-out: CLH
in vitro [4] = conditions: human, Caco-2
[5] = Solubility of the compound; type: physicochemical
[6] = Oral bioavailability in rat; type: ADME, organism-based; conditions: in vivo
[7] = Half life in iv dosed rat; type: ADME, organism-based; conditions: in vivo
[8] = Volume of distribution at steady state in iv dosed rat; type: ADME, organism-based; conditions: in vivo, read-out: Vdss
[9] = Clearance in iv dosed rat; type: ADME, organism-based; conditions: in vivo

SMILES	logD [1]	microsomal CLint (in vitro [2]) [µL/min/mg]	hepatocyte CLint [3] [µL/min/1e6 cells]	Papp A→B (in vitro [4]) [×10⁻⁶ cm/s]	solubility [5] [µM]	also measured
Cn1nc(-c2cnc(N)c(-c3cnn(C(N)=O)c3)n2)nc1C1(c2ccccc2)CC1	2.2					
Cn1nc(-c2cnc(N)c(-n3nnc4ccccc43)n2)nc1C1(c2ccccc2)CC1	4.3					
Cn1nc(-c2cnc(N)c(-c3cc[nH]n3)n2)nc1C1(c2ccccc2)CC1	3					
Cn1nc(-c2cnc(N)c(-n3ccc(C(N)=O)n3)n2)nc1C1(c2ccccc2)CC1	2.8					
Cn1nc(-c2cnc(N)c(-c3ccc(F)nc3)n2)nc1C1(c2ccccc2)CC1	2.5					
Cn1nc(-c2cnc(N)c(-c3ccc(N)nc3)n2)nc1C1(c2ccccc2)CC1	2					
CN(C)S(=O)(=O)n1cc(-c2nc(-c3nc(C4(c5ccccc5)CC4)n(C)n3)cnc2N)cn1	2.8	191	157	19	11 (≈ 5.12 µg/mL)	
Cn1nc(-c2cnc(N)cn2)nc1C1(c2ccccc2)CC1	1.8					
Cc1n[nH]c(C)c1-c1nc(-c2nc(C3(c4ccccc4)CC3)n(C)n2)cnc1N	2.3					
Cn1nc(-c2cnc(N)c(-c3nnc(C(C)(C)C)o3)n2)nc1C1(c2ccccc2)CC1	3.6	20	12	24	3 (≈ 1.25 µg/mL)	
Cn1nc(-c2cnc(N)c(-c3cn[nH]c3)n2)nc1C1(c2ccccc2)CC1	2.1	< 3	5	6.6	37 (≈ 13.3 µg/mL)	
Cn1nc(-c2cnc(N)c(-c3ccc(C(N)=O)cc3)n2)nc1C1(c2ccccc2)CC1	2.2	< 3	2	2	177 (≈ 72.8 µg/mL)	
Cn1nc(-c2cnc(N)c(C#N)n2)nc1C1(c2ccccc2)CC1	2.2					
Cn1nc(-c2cnc(N)c(-n3cc(C(N)=O)cn3)n2)nc1C1(c2ccccc2)CC1	2.8					
Cn1nc(-c2cnc(N)c(-c3ccc(C(N)=O)c(F)c3)n2)nc1C1(c2ccccc2)CC1	2.2	< 3	< 1	13	32 (≈ 13.7 µg/mL)	bioavailability [6]: 41%; half-life [7]: 3.4 h; Vd [8]: 2.8 L/kg; clearance [9]: 12 mL/min/kg
